“Also recorded” adds a separate entry of the source.
Tests used:
[1] = tested on: CuFi-1 (ΔF508/ΔF508) airway epithelia; experiment: Ussing chamber permeabilization of differentiated CF airway epithelia; format: cell-based, human; details: differentiated CuFi-1 epithelia
Experimental: A series of natural products and synthetic compounds reported previously to permeabilize liposomes, cells, and/or nasal epithelia of mice to anions (11-14) were tested using an Ussing chamber and differentiated cultures of airway epithelia derived from an immortalized airway epithelial cell line from a CF patient having the most common ΔF508/ΔF508 genotype (CuFi-1) (15). […] The capacity for AmB and C35deOAmB to transport bicarbonate across cholesterol-containing POPC liposomes was tested using an adapted ^13C NMR-based assay (18).

[2] = tested on: primary cultured human CF epithelia; experiment: ASL viscosity (FITC-dextran FRAP); format: cell-based; details: AmB 2 μM, 48 h
Experimental: ASL viscosity in airway epithelial cultures was determined (7, 25). Small diameter primary cultured epithelia were used for this experiment (0.33 cm^2). The apical surface was not washed for at least 2 weeks before study. Cultured epithelia were treated with 2 µM AmB administered in perfluorocarbon (FC-72, Sigma) for 48 hours. FITC-dextran (70 kD, Sigma) was then administered to the apical surface of epithelia as a dry powder 2 hrs before measurement of viscosity. FRAP was assayed in a humidified chamber at 37° C. using a Zeiss LSM 510 μMETA microscope. Images were acquired until maximal recovery was reached. At least 6 recovery curves from different locations in each culture were acquired and averaged to obtain data for one epithelial culture. The time constant […] was calculated by regression analysis from fluorescence recovery curves. Viscosity is expressed relative to the time constant of saline (τASL/τsaline).

CuFi-1 epithelia = experiment: ASL height by confocal microscopy; format: cell-based, human
Experimental: ASL height was studied using an established fluorescent dye assay (60, 61). Small diameter NuLi and CuFi-1 cultured epithelia were used for this experiment (0.33 cm^2). 24 hours prior to the start of experiment, the apical side of all cultured epithelia was rinsed three times with warm PBS to remove excess mucus. NuLi epithelia were treated with perfluorocarbon (FC-72) vehicle or 500 µM basolateral bumetanide in DMSO vehicle applied to the media, and CuFi epithelia were treated with 20 μL vehicle, 0.005, 0.5, or 50 μM AmB, or 0.5 μM C35deOAmB suspended in perfluorocarbon (FC-72, Sigma), with or without 500 μM basolateral bumetanide in DMSO vehicle applied to the media and incubated for 24 hours at 37° C. After 24 hours, 2.5 μL of a 2 mg/mL 70 kDa Texas Red-dextran conjugate (Molecular Probes) solution in PBS was added to the apical side of the epithelia, followed by 100 μL of FC-770 to prevent evaporation. Then the culture support was placed on top of 100 μL of PBS on a 10 mm glass bottom Fluorodish for imaging (World Precision Instruments). Epithelia were imaged immediately after dye addition and again at 24 hours to examine dye absorption. Three Z-stack images per membrane were taken on an Zeiss LSM700 confocal microscope at 40× oil immersion. These images were analyzed using ImageJ (62) to determine the average ASL height in the center 1300 pixels of each image. Images were smoothed, converted to 8-bit, and thresholded to most accurately represent the red area. The parameters for Analyze Particles were particles from 1-Infinity μm^2 in size and from 0%-100% circularity. Height was determined by dividing the area output in pixels by the known 1300 pixel width and converted to microns using the known scaling factor of 0.49 µm/pixel.

yeast = details: cited from earlier work

C[C@@H]1[C@H](O)[C@@H](C)/C=C/C=C/C=C/C=C/C=C/C=C/C=C/[C@H](O[C@@H]2O[C@H](C)[C@@H](O)[C@H](N)[C@@H]2O)C[C@@H]2O[C@](O)(C[C@@H](O)C[C@@H](O)[C@H](O)CC[C@@H](O)C[C@@H](O)CC(=O)O[C@H]1C)C[C@H](O)[C@H]2C(=O)O [AmB, amphotericin B]
change in short circuit current / permeabilization of epithelia [1]: exceptionally effective in causing a change in short circuit current
ASL viscosity (τASL/τsaline) [2]: decreased ASL viscosity across a wide range of patient genotypes
average magnitude of viscosity reduction [2]: ~1.5 units
ASL height, basolateral AmB (CuFi-1 epithelia): did not increase ASL height
ASL height, apical addition (CuFi-1 epithelia; 0.5 μM): increased ASL height in CuFi-1 epithelia to match that of NuLi epithelia; also recorded: increases ASL height
toxicity / fungicidal activity to yeast (yeast): highly toxic to yeast

— patent US12090164B2, “Genotype-agnostic rescue of cystic fibrosis with small molecule bicarbonate channels” (The Board of Trustees of the University of Illinois, priority 2017, dated 2024)
